Experimental data published in BindingDB's records for doi:10.7270/Q2CR5RTC (Burnham Center For Chemical Genomics, 2010).

biological target: T1, Tyrosine-protein phosphatase non-receptor type 22 (Homo sapiens, UniProt Q9Y2R2); experiment: LYP phosphatase inhibitors, dose response, biochemical, fluorescence intensity, uHTS hits, set 2 (AID 435024)
T1 sequence (Q9Y2R2 whole entry): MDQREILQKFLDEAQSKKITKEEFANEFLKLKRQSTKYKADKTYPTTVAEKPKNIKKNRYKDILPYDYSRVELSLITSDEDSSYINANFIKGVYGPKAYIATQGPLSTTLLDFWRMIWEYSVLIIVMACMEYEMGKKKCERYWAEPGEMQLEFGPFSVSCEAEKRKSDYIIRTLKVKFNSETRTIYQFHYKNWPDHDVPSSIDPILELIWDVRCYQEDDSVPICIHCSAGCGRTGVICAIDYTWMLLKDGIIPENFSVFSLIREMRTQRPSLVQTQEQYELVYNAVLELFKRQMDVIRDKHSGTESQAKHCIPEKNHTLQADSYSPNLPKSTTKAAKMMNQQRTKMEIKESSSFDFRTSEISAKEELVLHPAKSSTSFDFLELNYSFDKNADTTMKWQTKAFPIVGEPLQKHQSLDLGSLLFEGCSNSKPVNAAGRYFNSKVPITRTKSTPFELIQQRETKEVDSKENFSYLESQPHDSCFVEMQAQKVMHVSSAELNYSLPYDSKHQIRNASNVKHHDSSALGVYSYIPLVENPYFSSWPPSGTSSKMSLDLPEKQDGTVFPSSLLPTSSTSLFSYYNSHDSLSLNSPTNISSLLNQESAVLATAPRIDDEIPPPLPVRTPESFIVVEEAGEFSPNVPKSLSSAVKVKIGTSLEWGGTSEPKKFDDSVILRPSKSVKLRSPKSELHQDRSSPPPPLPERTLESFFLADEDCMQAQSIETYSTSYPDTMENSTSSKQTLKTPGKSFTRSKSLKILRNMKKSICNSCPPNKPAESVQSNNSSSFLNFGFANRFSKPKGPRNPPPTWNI

SMILES	IC50 [µM]
N=C(NN=Cc1ccc2c(c1)OCO2)Sc1cc(O)n(-c2ccc(C(=O)O)cc2)c1O [4-(3-{[[(2E)-2-(1,3-benzodioxol-5-ylmethylene)hydrazino](imino)methyl]thio}-2,5-dioxopyrrolidin-1-yl)benzoic acid]	8.58
Cc1ccc(NN=C2C(=O)N(CN3CCOCC3)c3ccccc32)cc1 [(3Z)-3-[(4-methylphenyl)hydrazinylidene]-1-(4-morpholinylmethyl)-2-indolone]	> 79.4
O=C1C([N+](=O)[O-])=CC(Br)=CC1/C=N/n1cnnc1 (stereo not given) [MLS000714804]	> 79.4
COC1=CC=CC(/C=N/NC(=O)c2cc3cc([N+](=O)[O-])ccc3s2)C1=O (stereo not given) [SMR000237814]	13.1
CCOC(=O)NC(=O)C(C=Nc1ccc(C)cc1)C(=O)NC(=O)OCC [ethyl 2-{[(ethoxycarbonyl)amino]carbonyl}-3-(4-toluidino)acryloylcarbamate]	> 79.4
